# Assay results as given in PubChem BioAssay AID1963849 (Molecular Pharmacology Branch, DTP, NCI, 2024).
# Test system: 299254-011-R-J1-PDC complex spheroid viability
# Assay: Anticancer human tumor 299254-011-R-J1-PDC patient-derived melanoma cell line growth inhibition [POLQ]
# Settings: for IC50: curve of first compound; for viability, T/C: stronger effect = lower value
# Outline: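 Growth inhibition in 3D: complex spheroids (tumor PDC, HUVEC, MSC) treated with POLQ inhibitor combinations; where Cmax unknown, highest tested concentration 10 microM, except SN-38 at 1 microM.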
# [1] = second compound 0.0316 µM, first compound 0.0316 µM
# [2] = second compound 0.0316 µM, first compound 0.1 µM
# [3] = second compound 0.0316 µM, first compound 0.316 µM
# [4] = second compound 0.0316 µM, first compound 1 µM
# [5] = second compound 0.0316 µM, first compound 3.16 µM
# [6] = second compound 0.0316 µM, first compound 10 µM
# [7] = second compound 0.1 µM, first compound 0.0316 µM
# [8] = second compound 0.1 µM, first compound 0.1 µM
# [9] = second compound 0.1 µM, first compound 0.316 µM
# [10] = second compound 0.1 µM, first compound 1 µM
# [11] = second compound 0.1 µM, first compound 3.16 µM
# [12] = second compound 0.1 µM, first compound 10 µM
# [13] = second compound 0.316 µM, first compound 0.0316 µM
# [14] = second compound 0.316 µM, first compound 0.1 µM
# [15] = second compound 0.316 µM, first compound 0.316 µM
# [16] = second compound 0.316 µM, first compound 1 µM
# [17] = second compound 0.316 µM, first compound 3.16 µM
# [18] = second compound 0.316 µM, first compound 10 µM
# [19] = second compound 1 µM, first compound 0.0316 µM
# [20] = second compound 1 µM, first compound 0.1 µM
# [21] = second compound 1 µM, first compound 0.316 µM
# [22] = second compound 1 µM, first compound 1 µM
# [23] = second compound 1 µM, first compound 3.16 µM
# [24] = second compound 1 µM, first compound 10 µM
# [25] = second compound 3.16 µM, first compound 0.0316 µM
# [26] = second compound 3.16 µM, first compound 0.1 µM
# [27] = second compound 3.16 µM, first compound 0.316 µM
# [28] = second compound 3.16 µM, first compound 1 µM
# [29] = second compound 3.16 µM, first compound 3.16 µM
# [30] = second compound 3.16 µM, first compound 10 µM
# [31] = second compound 10 µM, first compound 0.0316 µM
# [32] = second compound 10 µM, first compound 0.1 µM
# [33] = second compound 10 µM, first compound 0.316 µM
# [34] = second compound 10 µM, first compound 1 µM
# [35] = second compound 10 µM, first compound 3.16 µM
# [36] = second compound 10 µM, first compound 10 µM
# 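Further: spheroids exposed to drugs for one week before measurement.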
# 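Wherever viability, T/C is given: percent viability relative to DMSO vehicle control taken as 100%.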
smiles,measurement,setting,value
CC(=O)O[C@H]1C(=O)[C@@]2(C)[C@H]([C@H](OC(=O)c3ccccc3)[C@]3(O)C[C@H](OC(=O)[C@H](O)[C@@H](NC(=O)c4ccccc4)c4ccccc4)C(C)=C1C3(C)C)[C@]1(OC(C)=O)CO[C@@H]1C[C@@H]2O + Cc1cccc(N(C)C(=O)C2C(O)CCN2c2nc(C)cc(C(F)(F)F)c2C#N)c1,IC50,second compound 0.0316 µM,123 nM
same,IC50,second compound 0.1 µM,91.7 nM
same,IC50,second compound 0.316 µM,69.8 nM
same,IC50,second compound 1 µM,73.4 nM
same,IC50,second compound 3.16 µM,26.8 nM
same,IC50,second compound 10 µM,< 9.49 nM
same,"viability, T/C","second compound 0.0316 µM, first compound 0.00949 µM",99.2%
same,"viability, T/C","second compound 0.0316 µM, first compound 0.03 µM",79.7%
same,"viability, T/C","second compound 0.0316 µM, first compound 0.0949 µM",55.1%
same,"viability, T/C","second compound 0.0316 µM, first compound 0.3 µM",35.7%
same,"viability, T/C","second compound 0.0316 µM, first compound 0.949 µM",22%
same,"viability, T/C","second compound 0.0316 µM, first compound 3 µM",24.4%
same,"viability, T/C","second compound 0.1 µM, first compound 0.00949 µM",84.3%
same,"viability, T/C","second compound 0.1 µM, first compound 0.03 µM",70.7%
same,"viability, T/C","second compound 0.1 µM, first compound 0.0949 µM",49.6%
same,"viability, T/C","second compound 0.1 µM, first compound 0.3 µM",31.3%
same,"viability, T/C","second compound 0.1 µM, first compound 0.949 µM",23.2%
same,"viability, T/C","second compound 0.1 µM, first compound 3 µM",20.7%
same,"viability, T/C","second compound 0.316 µM, first compound 0.00949 µM",90.2%
same,"viability, T/C","second compound 0.316 µM, first compound 0.03 µM",68.6%
same,"viability, T/C","second compound 0.316 µM, first compound 0.0949 µM",41.7%
same,"viability, T/C","second compound 0.316 µM, first compound 0.3 µM",33.1%
same,"viability, T/C","second compound 0.316 µM, first compound 0.949 µM",29.8%
same,"viability, T/C","second compound 0.316 µM, first compound 3 µM",23.4%
same,"viability, T/C","second compound 1 µM, first compound 0.00949 µM",84.9%
same,"viability, T/C","second compound 1 µM, first compound 0.03 µM",69.2%
same,"viability, T/C","second compound 1 µM, first compound 0.0949 µM",43.4%
same,"viability, T/C","second compound 1 µM, first compound 0.3 µM",31.6%
same,"viability, T/C","second compound 1 µM, first compound 0.949 µM",21.3%
same,"viability, T/C","second compound 1 µM, first compound 3 µM",23.2%
same,"viability, T/C","second compound 3.16 µM, first compound 0.00949 µM",68.5%
same,"viability, T/C","second compound 3.16 µM, first compound 0.03 µM",48%
same,"viability, T/C","second compound 3.16 µM, first compound 0.0949 µM",33.8%
same,"viability, T/C","second compound 3.16 µM, first compound 0.3 µM",27.5%
same,"viability, T/C","second compound 3.16 µM, first compound 0.949 µM",21.7%
same,"viability, T/C","second compound 3.16 µM, first compound 3 µM",21.4%
same,"viability, T/C","second compound 10 µM, first compound 0.00949 µM",49%
same,"viability, T/C","second compound 10 µM, first compound 0.03 µM",31.2%
same,"viability, T/C","second compound 10 µM, first compound 0.0949 µM",20.4%
same,"viability, T/C","second compound 10 µM, first compound 0.3 µM",23.2%
same,"viability, T/C","second compound 10 µM, first compound 0.949 µM",22.7%
same,"viability, T/C","second compound 10 µM, first compound 3 µM",19.6%
CCc1cc2c(N3CCc4c(cc(Cn5ccnc5)cc4-c4cn(C)nc4C(F)(F)F)C3=O)cc(C)nc2c(OC)n1 + COC1C(OC(N)=O)C(O)C(Oc2ccc3c(O)c(NC(=O)c4ccc(O)c(CC=C(C)C)c4)c(=O)oc3c2C)OC1(C)C,IC50,second compound 0.0316 µM,> 10000 nM
same,IC50,second compound 0.1 µM,> 10000 nM
same,IC50,second compound 0.316 µM,> 10000 nM
same,IC50,second compound 1 µM,> 10000 nM
same,IC50,second compound 3.16 µM,> 10000 nM
same,IC50,second compound 10 µM,> 10000 nM
same,"viability, T/C",[1],96.8%
same,"viability, T/C",[2],96.1%
same,"viability, T/C",[3],109%
same,"viability, T/C",[4],81.1%
same,"viability, T/C",[5],91.5%
same,"viability, T/C",[6],69.5%
same,"viability, T/C",[7],99.8%
same,"viability, T/C",[8],95.3%
same,"viability, T/C",[9],104%
same,"viability, T/C",[10],108%
same,"viability, T/C",[11],107%
same,"viability, T/C",[12],63.9%
same,"viability, T/C",[13],107%
same,"viability, T/C",[14],121%
same,"viability, T/C",[15],103%
same,"viability, T/C",[16],106%
same,"viability, T/C",[17],88.4%
same,"viability, T/C",[18],66.8%
same,"viability, T/C",[19],116%
same,"viability, T/C",[20],110%
same,"viability, T/C",[21],114%
same,"viability, T/C",[22],99.6%
same,"viability, T/C",[23],94.5%
same,"viability, T/C",[24],67.4%
same,"viability, T/C",[25],106%
same,"viability, T/C",[26],107%
same,"viability, T/C",[27],100%
same,"viability, T/C",[28],106%
same,"viability, T/C",[29],99.2%
same,"viability, T/C",[30],70.6%
same,"viability, T/C",[31],96.3%
same,"viability, T/C",[32],105%
same,"viability, T/C",[33],110%
same,"viability, T/C",[34],106%
same,"viability, T/C",[35],93.5%
same,"viability, T/C",[36],73.9%
COc1cccc2c1C(=O)c1c(O)c3c(c(O)c1C2=O)CC(O)(C(=O)CO)CC3OC1CC(N)C(O)C(C)O1 (stereo unspecified) + Cc1cccc(N(C)C(=O)C2C(O)CCN2c2nc(C)cc(C(F)(F)F)c2C#N)c1,IC50,second compound 0.0316 µM,565 nM
same,IC50,second compound 0.1 µM,803 nM
same,IC50,second compound 0.316 µM,763 nM
same,IC50,second compound 1 µM,670 nM
same,IC50,second compound 3.16 µM,567 nM
same,IC50,second compound 10 µM,352 nM
same,"viability, T/C",[1],111%
same,"viability, T/C",[2],77.3%
same,"viability, T/C",[3],64.9%
same,"viability, T/C",[4],44.1%
same,"viability, T/C",[5],12.2%
same,"viability, T/C",[6],0.75%
same,"viability, T/C",[7],83.7%
same,"viability, T/C",[8],75.8%
same,"viability, T/C",[9],77.4%
same,"viability, T/C",[10],42.9%
same,"viability, T/C",[11],11.7%
same,"viability, T/C",[12],0.68%
same,"viability, T/C",[13],97.7%
same,"viability, T/C",[14],83.2%
same,"viability, T/C",[15],75.2%
same,"viability, T/C",[16],43.8%
same,"viability, T/C",[17],11.4%
same,"viability, T/C",[18],1.03%
same,"viability, T/C",[19],105%
same,"viability, T/C",[20],89.8%
same,"viability, T/C",[21],61.7%
same,"viability, T/C",[22],48.6%
same,"viability, T/C",[23],12%
same,"viability, T/C",[24],0.75%
same,"viability, T/C",[25],100%
same,"viability, T/C",[26],74.8%
same,"viability, T/C",[27],68.8%
same,"viability, T/C",[28],38.9%
same,"viability, T/C",[29],8.88%
same,"viability, T/C",[30],0.51%
same,"viability, T/C",[31],102%
same,"viability, T/C",[32],74.6%
same,"viability, T/C",[33],59.9%
same,"viability, T/C",[34],19.8%
same,"viability, T/C",[35],0.75%
same,"viability, T/C",[36],0.31%
